Patent US20230265151A1, “GIP/GLP1 CO-AGONIST COMPOUNDS” (priority 2020, published 2023)

What was measured:
hGIPR = target: T1, hGIPR (Homo sapiens, UniProt P48546); assay: Functional cAMP formation (HTRF) in HEK-293 clonal cells expressing hGIPR, 0.1% bovine casein, without or with 1.0% human serum albumin; type: cell-based; settings: for Emax: HEK293, percent of maximal response to GIP(1-42)NH2, 37° C., 0.1% bovine casein, arithmetic mean, read-out: hGIPR Emax, % ± SEM
T1 construct: expressed in transfected cells
T1 sequence (P48546 22-466): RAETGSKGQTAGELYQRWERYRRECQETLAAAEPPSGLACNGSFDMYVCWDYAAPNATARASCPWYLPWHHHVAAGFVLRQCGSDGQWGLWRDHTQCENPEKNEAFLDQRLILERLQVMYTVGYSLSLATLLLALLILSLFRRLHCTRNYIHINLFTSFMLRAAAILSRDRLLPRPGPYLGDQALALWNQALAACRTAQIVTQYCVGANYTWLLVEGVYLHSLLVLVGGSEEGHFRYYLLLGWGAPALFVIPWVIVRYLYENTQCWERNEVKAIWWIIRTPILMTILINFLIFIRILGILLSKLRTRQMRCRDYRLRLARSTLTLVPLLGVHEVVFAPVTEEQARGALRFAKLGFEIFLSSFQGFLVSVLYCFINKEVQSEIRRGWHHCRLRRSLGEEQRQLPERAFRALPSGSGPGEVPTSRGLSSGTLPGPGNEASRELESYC
How it was run: (§1)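 Readings of the HTRF 665/620 nm ratio, which falls as cAMP rises, were converted to nM cAMP using a standard curve after 30 min peptide exposure at 37° C.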

hGCGR = target: T2, hGCGR (Homo sapiens, UniProt P47871); assay: Functional cAMP formation (HTRF) in HEK-293 clonal cells expressing hGCGR, 0.1% bovine casein, without or with 1.0% human serum albumin; type: cell-based; settings: cAMP, incubated at 37° C., 0.1% bovine casein (no human serum albumin); geometric mean; read-out: hGCGR EC50, nM (SEM, n)
T2 construct: expressed in transfected cells
T2 sequence (P47871 26-477): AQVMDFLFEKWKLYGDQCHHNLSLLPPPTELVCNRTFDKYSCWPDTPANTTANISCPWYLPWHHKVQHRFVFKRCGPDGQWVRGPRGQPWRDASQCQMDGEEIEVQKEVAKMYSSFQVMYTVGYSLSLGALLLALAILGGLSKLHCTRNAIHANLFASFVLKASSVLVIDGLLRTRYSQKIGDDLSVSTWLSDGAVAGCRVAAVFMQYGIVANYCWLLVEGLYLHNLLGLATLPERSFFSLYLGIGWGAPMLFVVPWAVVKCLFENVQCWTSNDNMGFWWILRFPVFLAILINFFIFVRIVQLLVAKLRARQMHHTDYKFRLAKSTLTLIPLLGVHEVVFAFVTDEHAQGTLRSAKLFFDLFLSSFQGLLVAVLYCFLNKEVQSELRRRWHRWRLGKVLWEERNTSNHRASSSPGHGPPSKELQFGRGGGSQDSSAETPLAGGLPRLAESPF
How it was run: as §1

| Compound | Emax (hGIPR) [%] | EC50 (hGIPR; cAMP, incubated at 37° C., 0.1% bovine casein (no human serum albumin), geometric mean, read-out: hGIPR EC50, nM (SEM, n)) [nM] | EC50 (hGCGR) [nM] |
| --- | --- | --- | --- |
| CC[C@H](C)[C@H](NC(=O)[C@H](CC(C)C)NC(=O)[C@](C)(Cc1ccc(O)cc1)NC(=O)[C@@H](CCC(=O)O)NC(=O)[C@@H](NC(=O)[C@H](Cc1ccccc1)NC(=O)[C@H](CCC(=O)O)NC(=O)C(C)(C)NC(=O)[C@H](CCC(N)=O)NC(=O)[C@H](C)NC(=O)[C@H](CCCCNC(=O)COCCOCCNC(=O)COCCOCCNC(=O)CC[C@H](NC(=O)CCCc1ccc(C(C)(C)C)cc1)C(=O)O)NC(=O)[C@H](CCCN)NC(=O)[C@H](CC(=O)O)NC(=O)[C@H](CC(C)C)NC(=O)[C@](C)(CC(C)C)NC(=O)[C@@H](NC(=O)C(C)(C)NC(=O)[C@@H](NC(=O)[C@H](CC(=O)O)NC(=O)[C@H](CO)NC(=O)[C@@H](NC(=O)[C@](C)(Cc1ccccc1)NC(=O)[C@@H](NC(=O)CNC(=O)[C@H](CCC(=O)O)NC(=O)C(C)(C)NC(=O)[C@@H](N)Cc1ccc(O)cc1)[C@@H](C)O)[C@@H](C)O)C(C)C)[C@@H](C)CC)[C@@H](C)CC)C(=O)N[C@@H](CCC(=O)O)C(=O)NCC(=O)NCC(=O)N[C@@H](CCCCNC(=O)COCCOCCNC(=O)COCCOCCNC(=O)CC[C@H](NC(=O)CCCc1ccc(C(C)(C)C)cc1)C(=O)O)C(=O)N[C@@H](CO)C(=O)N[C@@H](CO)C(=O)NCC(=O)N[C@@H](C)C(=O)N1CCC[C@H]1C(=O)N1CCC[C@H]1C(=O)N1CCC[C@H]1C(=O)N[C@@H](CO)C(N)=O [Example 178] | 105 | 0.11 | > 9950 |
| CC[C@H](C)[C@H](NC(=O)[C@H](CC(C)C)NC(=O)[C@](C)(Cc1ccc(O)cc1)NC(=O)[C@@H](CCC(=O)O)NC(=O)[C@@H](NC(=O)[C@H](Cc1ccccc1)NC(=O)[C@H](CCC(=O)O)NC(=O)C(C)(C)NC(=O)[C@H](CCC(N)=O)NC(=O)[C@H](C)NC(=O)[C@H](CCCCNC(=O)COCCOCCNC(=O)COCCOCCNC(=O)CC[C@H](NC(=O)CCCCCCCCCCCCC(=O)O)C(=O)O)NC(=O)[C@H](CCCN)NC(=O)[C@H](CC(=O)O)NC(=O)[C@H](CC(C)C)NC(=O)[C@](C)(CC(C)C)NC(=O)[C@@H](NC(=O)C(C)(C)NC(=O)[C@@H](NC(=O)[C@H](CC(=O)O)NC(=O)[C@H](CO)NC(=O)[C@@H](NC(=O)[C@](C)(Cc1ccccc1)NC(=O)[C@@H](NC(=O)CNC(=O)[C@H](CCC(=O)O)NC(=O)C(C)(C)NC(=O)[C@@H](N)Cc1ccc(O)cc1)[C@@H](C)O)[C@@H](C)O)C(C)C)[C@@H](C)CC)[C@@H](C)CC)C(=O)N[C@@H](CCC(=O)O)C(=O)NCC(=O)NCC(=O)N[C@@H](CCCCNC(=O)COCCOCCNC(=O)COCCOCCNC(=O)CC[C@H](NC(=O)CCCCCCCCCCCCC(=O)O)C(=O)O)C(=O)N[C@@H](CO)C(=O)N[C@@H](CO)C(=O)NCC(=O)N[C@@H](C)C(=O)N1CCC[C@H]1C(=O)N1CCC[C@H]1C(=O)N1CCC[C@H]1C(=O)N[C@@H](CO)C(N)=O [Example 180] | 86.8 |  | > 9950 |
